Source: patent US20250282794A1 (CURADEV PHARMA LTD, priority 2022, published 2025)
pIC50: −log10 of the molar value.

target: recombinant full length HPK-1 enzyme (Homo sapiens (Human), UniProt Q92918); experiment: HPK-1 biochemical enzyme assay (ADP-Glo kinase inhibition); conditions: recombinant full length HPK-1 6.8 nM, 10 μM ATP, 12.5 μM MBP, 30 mins at 25° C.
Method: HPK-1 biochemical enzyme assay
Compound inhibitory potency was measured in an HPK-1 kinase inhibition assay. Briefly, recombinant full length HPK-1 enzyme (6.8 nM) was incubated with 10 μM ATP and 12.5 μM swine myelin basic protein (MBP) for 30 mins. at 25° C. in the presence of various concentrations of test compound or vehicle in 40 mM Tris.Cl pH7.4 buffer containing 20 mM MgCl2, 50 μM DTT and 0.1 mg/mL BSA. Reactions were quenched and reaction mixtures were then analyzed by an ADP-Glo kit which measures the formed ADP. The percent inhibition was calculated from the substrate conversion considering no enzyme control reactions for 100% inhibition and vehicle only reactions for 0% inhibition. The compounds were dissolved in DMSO and evaluated at 10 concentrations to determine an IC50 value.
In the below table A denotes an HPK-1 IC50≤10 nM, B denotes an HPK-1 IC50>10 nM but≤100 nM and C denotes an HPK-1 IC50>100 nM but≤1000 nM.

Sequence of recombinant full length HPK-1 enzyme (Q92918 whole entry, species assumed): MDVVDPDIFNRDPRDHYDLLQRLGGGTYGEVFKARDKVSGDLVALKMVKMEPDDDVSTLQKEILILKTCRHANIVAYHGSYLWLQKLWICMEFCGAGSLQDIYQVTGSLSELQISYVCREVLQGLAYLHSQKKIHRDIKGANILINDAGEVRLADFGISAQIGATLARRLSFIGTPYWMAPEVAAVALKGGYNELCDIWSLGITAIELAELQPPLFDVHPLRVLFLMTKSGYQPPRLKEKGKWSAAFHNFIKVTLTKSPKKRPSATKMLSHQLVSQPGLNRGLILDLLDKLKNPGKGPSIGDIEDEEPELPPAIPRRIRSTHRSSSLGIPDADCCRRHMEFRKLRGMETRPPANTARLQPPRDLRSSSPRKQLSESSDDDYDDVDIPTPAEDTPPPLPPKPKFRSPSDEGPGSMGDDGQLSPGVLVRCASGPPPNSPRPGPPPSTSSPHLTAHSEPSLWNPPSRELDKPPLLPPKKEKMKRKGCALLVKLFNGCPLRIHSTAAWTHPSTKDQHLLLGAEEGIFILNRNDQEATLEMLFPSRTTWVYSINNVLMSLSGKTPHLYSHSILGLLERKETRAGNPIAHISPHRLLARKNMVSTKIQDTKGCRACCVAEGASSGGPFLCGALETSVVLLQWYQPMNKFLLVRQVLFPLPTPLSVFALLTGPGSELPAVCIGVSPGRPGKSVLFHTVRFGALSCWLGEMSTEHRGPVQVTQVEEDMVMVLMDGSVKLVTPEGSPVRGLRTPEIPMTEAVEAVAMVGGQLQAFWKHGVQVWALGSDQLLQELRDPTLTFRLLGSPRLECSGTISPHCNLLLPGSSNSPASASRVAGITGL

SMILES	pIC50
Cc1c(Nc2cc[nH]c(=O)c2C(=O)Nc2ccc(-c3cc[nH]n3)cc2)cnc2c1NCCO2 [Example 145, N-(4-(1H-pyrazol-3-yl)phenyl)-4-((8-methyl-2,3-dihydro-1H-pyrido[2,3-b][1,4]oxazin-7-yl)amino)-2-oxo-1,2-dihydropyridine-3-carboxamide]	7.00 to 8.00
Cc1c(Nc2cc[nH]c(=O)c2C(=O)Nc2ccc(N3CCN(C)CC3)cc2)cnc2c1NCC(C)O2 (stereo not shown) [Example 164, 4-((3,8-dimethyl-2,3-dihydro-1H-pyrido[2,3-b][1,4]oxazin-7-yl)amino)-N-(4-(4-methylpiperazin-1-yl)phenyl)-2-oxo-1,2-dihydropyridine-3-carboxamide]	7.00 to 8.00
Cc1c(Nc2cc[nH]c(=O)c2C(=O)Nc2ccc(N3CCN(C4(C)COC4)CC3)cc2)cnc2c1NCCO2 [Example 380, 4-((8-methyl-2,3-dihydro-1H-pyrido[2,3-b][1,4]oxazin-7-yl)amino)-N-(4-(4-(3-methyloxetan-3-yl)piperazin-1-yl)phenyl)-2-oxo-1,2-dihydropyridine-3-carboxamide]	7.00 to 8.00
Cc1c(Nc2cc[nH]c(=O)c2C(=O)Nc2ccc(N3CCN(C)CC3)c(CCO)c2)cnc2c1NCCO2 [Example 394, N-(3-(2-hydroxyethyl)-4-(4-methylpiperazin-1-yl)phenyl)-4-((8-methyl-2,3-dihydro-1H-pyrido[2,3-b][1,4]oxazin-7-yl)amino)-2-oxo-1,2-dihydropyridine-3-carboxamide]	7.00 to 8.00
Cc1c(Nc2cc[nH]c(=O)c2C(=O)Nc2ccc(-c3ccnn3C(C)C)cc2)cnc2c1NCCO2 [Example 271, N-(4-(1-isopropyl-1H-pyrazol-5-yl)phenyl)-4-((8-methyl-2,3-dihydro-1H-pyrido[2,3-b][1,4]oxazin-7-yl)amino)-2-oxo-1,2-dihydropyridine-3-carboxamide]	7.00 to 8.00
Cc1c(Nc2cc[nH]c(=O)c2C(=O)Nc2ccc(C(N)=O)cc2)cnc2c1NCCO2 [Example 242, N-(4-carbamoylphenyl)-4-((8-methyl-2,3-dihydro-1H-pyrido[2,3-b][1,4]oxazin-7-yl)amino)-2-oxo-1,2-dihydropyridine-3-carboxamide]	7.00 to 8.00
Cc1c(Nc2nc[nH]c(=O)c2C(=O)Nc2ccc(N3CCN(C(C)C)CC3)cc2)cnc2c1NCCO2 [Example 412, N-(4-(4-isopropylpiperazin-1-yl)phenyl)-4-((8-methyl-2,3-dihydro-1H-pyrido[2,3-b][1,4]oxazin-7-yl)amino)-6-oxo-1,6-dihydropyrimidine-5-carboxamide]	7.00 to 8.00
Cc1c(Nc2cc[nH]c(=O)c2C(=O)Nc2ccc(N3CCN4CCCC4C3)cc2)cnc2c1NCC(C)O2 (stereo not shown) [Example 201, 4-((3,8-dimethyl-2,3-dihydro-1H-pyrido[2,3-b][1,4]oxazin-7-yl)amino)-N-(4-(hexahydropyrrolo[1,2-a]pyrazin-2(1H)-yl)phenyl)-2-oxo-1,2-dihydropyridine-3-carboxamide]	7.00 to 8.00
COCCN1CCC(c2ccc(NC(=O)c3c(Nc4cnc5c(c4C)NCCO5)cc[nH]c3=O)cc2)CC1 [Example 202, N-(4-(1-(2-methoxyethyl)piperidin-4-yl)phenyl)-4-((8-methyl-2,3-dihydro-1H-pyrido[2,3-b][1,4]oxazin-7-yl)amino)-2-oxo-1,2-dihydropyridine-3-carboxamide]	7.00 to 8.00
Cc1c(Nc2cc[nH]c(=O)c2C(=O)Nc2ccc(-c3cccnc3)cc2)cnc2c1NCCO2 [Example 151, 4-((8-methyl-2,3-dihydro-1H-pyrido[2,3-b][1,4]oxazin-7-yl)amino)-2-oxo-N-(4-(pyridin-3-yl)phenyl)-1,2-dihydropyridine-3-carboxamide]	7.00 to 8.00
COc1ccc(Oc2ccc(NC(=O)c3c(Nc4cnc5c(c4C)NCCO5)cc[nH]c3=O)cc2)cc1 [Example 253, N-(4-(4-methoxyphenoxy)phenyl)-4-((8-methyl-2,3-dihydro-1H-pyrido[2,3-b][1,4]oxazin-7-yl)amino)-2-oxo-1,2-dihydropyridine-3-carboxamide]	6.00 to 7.00
CO[C@H](C)C(=O)N1CCN(c2ccc(NC(=O)c3c(Nc4cnc5c(c4C)NCCO5)cc[nH]c3=O)cc2)CC1 [Example 353, (R)-N-(4-(4-(2-methoxypropanoyl)piperazin-1-yl)phenyl)-4-((8-methyl-2,3-dihydro-1H-pyrido[2,3-b][1,4]oxazin-7-yl)amino)-2-oxo-1,2-dihydropyridine-3-carboxamide]	7.00 to 8.00

Continued, values first:

pIC50	SMILES
7.00 to 8.00	Cc1c(Nc2cc[nH]c(=O)c2C(=O)Nc2ccc(N3CCN(C)CC3)c(CO)c2)cnc2c1NCC(C)O2 (stereo not shown) [Example 204, 4-((3,8-dimethyl-2,3-dihydro-1H-pyrido[2,3-b][1,4]oxazin-7-yl)amino)-N-(3-(hydroxymethyl)-4-(4-methylpiperazin-1-yl)phenyl)-2-oxo-1,2-dihydropyridine-3-carboxamide]
7.00 to 8.00	Cc1c(Nc2cc[nH]c(=O)c2C(=O)Nc2ccc(N3CCN(C(=O)C4CCN(C)C4)CC3)cc2)cnc2c1NCCO2 (stereo not shown) [Example 356, 4-((8-methyl-2,3-dihydro-1H-pyrido[2,3-b][1,4]oxazin-7-yl)amino)-N-(4-(4-(1-methylpyrrolidine-3-carbonyl)piperazin-1-yl)phenyl)-2-oxo-1,2-dihydropyridine-3-carboxamide]
≥ 8.00	Cc1c(Nc2cc[nH]c(=O)c2C(=O)Nc2ccc(N3CCN(C(=O)C4CC4)CC3)cc2)cnc2c1NCC(C)O2 (stereo not shown) [Example 372, N-(4-(4-(cyclopropanecarbonyl)piperazin-1-yl)phenyl)-4-((3,8-dimethyl-2,3-dihydro-1H-pyrido[2,3-b][1,4]oxazin-7-yl)amino)-2-oxo-1,2-dihydropyridine-3-carboxamide]
7.00 to 8.00	Cc1c(Nc2cc[nH]c(=O)c2C(=O)Nc2ccc(-c3ccncc3)cc2)cnc2c1NCCO2 [Example 152, 4-((8-methyl-2,3-dihydro-1H-pyrido[2,3-b][1,4]oxazin-7-yl)amino)-2-oxo-N-(4-(pyridin-4-yl)phenyl)-1,2-dihydropyridine-3-carboxamide]
≥ 8.00	Cc1c(Nc2cc[nH]c(=O)c2C(=O)Nc2ccc(N3CCN(C(C)C)CC3)cc2)cnc2c1NCC(C)O2 (stereo not shown) [Example 169, 4-((3,8-dimethyl-2,3-dihydro-1H-pyrido[2,3-b][1,4]oxazin-7-yl)amino)-N-(4-(4-isopropylpiperazin-1-yl)phenyl)-2-oxo-1,2-dihydropyridine-3-carboxamide]
≥ 8.00	Cc1c(Nc2cc[nH]c(=O)c2C(=O)Nc2ccc(N3CCN(C4COC4)CC3)c(F)c2)cnc2c1NCCO2 [Example 379, N-(3-fluoro-4-(4-(oxetan-3-yl)piperazin-1-yl)phenyl)-4-((8-methyl-2,3-dihydro-1H-pyrido[2,3-b][1,4]oxazin-7-yl)amino)-2-oxo-1,2-dihydropyridine-3-carboxamide]
7.00 to 8.00	Cc1c(Nc2cc[nH]c(=O)c2C(=O)Nc2ccc(-c3ccccn3)cc2)cnc2c1NCCO2 [Example 130, 4-((8-methyl-2,3-dihydro-1H-pyrido[2,3-b][1,4]oxazin-7-yl)amino)-2-oxo-N-(4-(pyridin-2-yl)phenyl)-1,2-dihydropyridine-3-carboxamide]
≥ 8.00	Cc1c(Nc2cc[nH]c(=O)c2C(=O)Nc2ccc(N3CCN(Cc4ccn[nH]4)CC3)cc2)cnc2c1NCCO2 [Example 174, N-(4-(4-((1H-pyrazol-5-yl)methyl)piperazin-1-yl)phenyl)-4-((8-methyl-2,3-dihydro-1H-pyrido[2,3-b][1,4]oxazin-7-yl)amino)-2-oxo-1,2-dihydropyridine-3-carboxamide]
≥ 8.00	COCCN1CCN(c2ccc(NC(=O)c3c(Nc4cnc5c(c4C)NCCO5)cc[nH]c3=O)cc2)C[C@@H]1C [Example 346, (S)-N-(4-(4-(2-methoxyethyl)-3-methylpiperazin-1-yl)phenyl)-4-((8-methyl-2,3-dihydro-1H-pyrido[2,3-b][1,4]oxazin-7-yl)amino)-2-oxo-1,2-dihydropyridine-3-carboxamide]
≥ 8.00	Cc1c(Nc2cc[nH]c(=O)c2C(=O)Nc2ccc(N3CCN(Cc4ccn[nH]4)CC3)cc2)cnc2c1NCC(C)O2 (stereo not shown) [Example 193, N-(4-(4-((1H-pyrazol-5-yl)methyl)piperazin-1-yl)phenyl)-4-((3,8-dimethyl-2,3-dihydro-1H-pyrido[2,3-b][1,4]oxazin-7-yl)amino)-2-oxo-1,2-dihydropyridine-3-carboxamide]
≥ 8.00	Cc1c(Nc2cc[nH]c(=O)c2C(=O)Nc2ccc(N3CCN4CCC[C@@H]4C3)cc2)cnc2c1NCCO2 [Example 329, (R)-N-(4-(hexahydropyrrolo[1,2-a]pyrazin-2(1H)-yl)phenyl)-4-((8-methyl-2,3-dihydro-1H-pyrido[2,3-b][1,4]oxazin-7-yl)amino)-2-oxo-1,2-dihydropyridine-3-carboxamide]
≥ 8.00	Cc1c(Nc2cc[nH]c(=O)c2C(=O)Nc2ccc(N3CCN(CCO)CC3)c(F)c2)cnc2c1NCC(C)O2 (stereo not shown) [Example 186, 4-((3,8-dimethyl-2,3-dihydro-1H-pyrido[2,3-b][1,4]oxazin-7-yl)amino)-N-(3-fluoro-4-(4-(2-hydroxyethyl)piperazin-1-yl)phenyl)-2-oxo-1,2-dihydropyridine-3-carboxamide]
≥ 8.00	CO[C@@H](C)C(=O)N1CCN(c2ccc(NC(=O)c3c(Nc4cnc5c(c4C)NCCO5)cc[nH]c3=O)cc2)CC1 [Example 350, (S)-N-(4-(4-(2-methoxypropanoyl)piperazin-1-yl)phenyl)-4-((8-methyl-2,3-dihydro-1H-pyrido[2,3-b][1,4]oxazin-7-yl)amino)-2-oxo-1,2-dihydropyridine-3-carboxamide]
